The target of experiment [1] is T1, xTMEM16A (Xenopus laevis, UniProt B5SVV6).
T1 sequence (B5SVV6 1-979): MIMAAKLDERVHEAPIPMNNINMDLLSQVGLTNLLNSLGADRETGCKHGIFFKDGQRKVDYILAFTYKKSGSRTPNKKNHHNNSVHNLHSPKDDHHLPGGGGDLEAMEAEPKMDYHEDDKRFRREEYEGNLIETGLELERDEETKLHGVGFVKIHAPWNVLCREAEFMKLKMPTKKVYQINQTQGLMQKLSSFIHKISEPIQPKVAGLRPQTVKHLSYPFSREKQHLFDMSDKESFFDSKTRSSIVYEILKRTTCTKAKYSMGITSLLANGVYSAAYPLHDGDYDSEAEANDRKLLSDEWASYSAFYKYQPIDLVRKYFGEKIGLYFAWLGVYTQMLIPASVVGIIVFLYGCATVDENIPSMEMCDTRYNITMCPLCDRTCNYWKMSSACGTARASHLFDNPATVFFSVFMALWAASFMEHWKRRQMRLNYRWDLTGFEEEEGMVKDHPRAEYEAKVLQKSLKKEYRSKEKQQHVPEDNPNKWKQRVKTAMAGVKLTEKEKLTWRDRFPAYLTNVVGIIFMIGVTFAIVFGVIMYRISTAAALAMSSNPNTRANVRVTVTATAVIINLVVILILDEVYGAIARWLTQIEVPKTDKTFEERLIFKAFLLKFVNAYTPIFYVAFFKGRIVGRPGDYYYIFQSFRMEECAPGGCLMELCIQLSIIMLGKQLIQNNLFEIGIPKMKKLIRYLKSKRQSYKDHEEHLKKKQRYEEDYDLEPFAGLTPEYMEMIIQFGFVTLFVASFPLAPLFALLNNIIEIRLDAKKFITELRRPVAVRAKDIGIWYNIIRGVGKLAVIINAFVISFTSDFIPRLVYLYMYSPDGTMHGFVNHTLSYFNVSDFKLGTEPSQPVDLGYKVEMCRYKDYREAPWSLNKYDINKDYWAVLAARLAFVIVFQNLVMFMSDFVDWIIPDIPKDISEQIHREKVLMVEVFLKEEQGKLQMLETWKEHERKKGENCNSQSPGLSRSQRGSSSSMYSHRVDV
Nature of the experiment: TEVC in axolotl oocytes, current evoked by uncaging IP3. The experiment is classed as cell-based.

The target of experiment [2] is T1, xTMEM16A. The description is as above. The experiment is classed as cell-based. Conditions: 7.5 µM; otherwise same; printed as almost 50%.

What is called inhibition is the share of the control response that was lost under treatment. Consider `COc1ccccc1C=NNC(=O)COc1ccc(Cl)cc1C` [Ani9, 2-(4-chloro-2-methylphenoxy)-N-[(2-methoxyphenyl)methylideneamino]-acetamide], for which, in experiment [1] (read-out: % inhibition at 1 μM), the inhibition at 1 µM was roughly 80%.

For the compound `CC(C)(C)C1CCc2c(sc(NC(=O)c3ccco3)c2C(=O)O)C1` (stereo not shown) [CaCCinh-A01, 6-(1,1-dimethylethyl)-2-[(2-furanylcarbonyl)amino]-4,5,6,7-tetrahydrobenzo[b]thiophene-3-carboxylic acid], the “% inhibition” value in experiment [2] is “whereas T16Ainh-A01 and CaCCinh-A01 were much less effective”.

As for `O=S(=O)(O)c1cc(N=C=S)ccc1/C=C/c1ccc(N=C=S)cc1S(=O)(=O)O` [DIDS], the inhibition at 7.5 µM in experiment [1] (read-out: % inhibition at 7.5 μM) was roughly 50%.

Consider `COc1cc(Nc2ccc([N+](=O)[O-])cc2C(=O)O)cc2ccccc12` [MONNA, N-((4-methoxy)-2-naphthyl)-5-nitroanthranilic acid], for which the inhibition at 10 µM in experiment [1] (read-out: % inhibition at 10 μM) was 72 ± 3%.

The record behind these values is PMC6122928 (The Journal of General Physiology, 2018).
